In patent US8012979B2, “Compounds and their uses 707” (AstraZeneca AB, priority 2007, dated 2011):

What was measured:
[1] = molecular target: T1, human active recombinant p38α-6His tagged (Homo sapiens, UniProt Q16539); test: p38 Alpha Enzyme Assay (AlphaScreen, biotinylated-ATF2 substrate); assay type: biochemical; details: pre-incubated 4 hours at 37° C., reaction initiated with ATP; 0.5 nM enzyme; read-out: p38 pIC50 (converted)
T1 construct: 6His

[2] = GVS (Dynamic Vapour Sorption) determination; assay type: physicochemical; details: at 80% RH (±0.2%); crystalline polymorph A
Description: GVS profiles were measured using a Dynamic Vapour Sorption DVS-1 instrument. The solid sample ca. 1-5 mg was placed into a glass vessel and the weight of the sample was recorded during a dual cycle step method (40 to 90 to 0 to 90 to 0% relative humidity (RH), in steps of 10% RH).

T1 sequence (Q16539 whole entry): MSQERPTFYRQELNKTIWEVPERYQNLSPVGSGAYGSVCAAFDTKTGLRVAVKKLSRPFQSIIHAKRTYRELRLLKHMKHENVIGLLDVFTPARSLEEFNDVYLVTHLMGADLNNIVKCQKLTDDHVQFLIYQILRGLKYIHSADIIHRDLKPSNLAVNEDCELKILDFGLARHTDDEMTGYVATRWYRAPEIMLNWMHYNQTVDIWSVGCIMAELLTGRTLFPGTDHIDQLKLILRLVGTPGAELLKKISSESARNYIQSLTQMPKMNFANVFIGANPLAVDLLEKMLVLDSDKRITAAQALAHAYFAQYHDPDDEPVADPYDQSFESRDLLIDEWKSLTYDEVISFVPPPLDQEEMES

IC50 [1] | GVS weight increase [2] | Compound
1.26 nM | 0.9 % w/w | Cc1ccc(C(=O)NC2CC2)cc1-c1ccc2c(=O)n(Cc3ccccc3)cc(C(=O)NCCN(C)C)c2c1 [Example 47, 2-Benzyl-6-(5-(cyclopropylcarbamoyl)-2-methylphenyl)-N-(2-(dimethylamino)ethyl)-1-oxo-1,2-dihydroisoquinoline-4-carboxamide]
0.0631 nM | – | Cc1c(F)cc(C(=O)NC2CC2)cc1-c1ccc2c(=O)n(CC3CC3)cc(CN3CCN(C)[C@@H](CO)C3)c2c1 [Example 87, (R)—N-Cyclopropyl-3-(2-(cyclopropylmethyl)-4-((3-(hydroxymethyl)-4-methylpiperazin-1-yl)methyl)-1-oxo-1,2-dihydroisoquinolin-6-yl)-5-fluoro-4-methylbenzamide]
0.158 nM | – | Cc1c(F)cc(C(=O)NC2CC2)cc1-c1ccc2c(=O)n(CC3CC3)cc(CN3CCCN(CCO)CC3)c2c1 [Example 78, N-Cyclopropyl-3-(2-(cyclopropylmethyl)-4-((4-(2-hydroxyethyl)-1,4-diazepan-1-yl)methyl)-1-oxo-1,2-dihydroisoquinolin-6-yl)-5-fluoro-4-methylbenzamide]
2.51 nM | – | Cc1ccc(C(=O)NC2CC2)cc1-c1ccc2c(=O)n(Cc3ccc(Br)cc3)ccc2c1 [Example 3, 3-[2-(4-Bromo-benzyl)-1-oxo-1,2-dihydro-isoquinolin-6-yl]-N-cyclopropyl-4-methyl-benzamide]
10 nM | – | Cc1ccc(C(=O)NC2CC2)cc1-c1ccc2c(=O)n(CC3CC3)cc(CNCCCN(C)C)c2c1 [Example 71, N-Cyclopropyl-3-(2-(cyclopropylmethyl)-4-((3-(dimethylamino)propylamino)methyl)-1-oxo-1,2-dihydroisoquinolin-6-yl)-4-methylbenzamide]
0.0794 nM | – | Cc1c(F)cc(C(=O)NC2CC2)cc1-c1ccc2c(=O)n(CC3CC3)cc(CN3CCNC[C@H]3C)c2c1 [Example 86, (R)—N-Cyclopropyl-3-(2-(cyclopropylmethyl)-4-((2-methylpiperazin-1-yl)methyl)-1-oxo-1,2-dihydroisoquinolin-6-yl)-5-fluoro-4-methylbenzamide]
0.316 nM | – | Cc1c(F)cc(C(=O)NC2CC2)cc1-c1ccc2c(=O)n(CC3CC3)cc(CN3C[C@@H](C)N[C@@H](C)C3)c2c1 [Example 80, N-Cyclopropyl-3-(2-(cyclopropylmethyl)-4-(((3S,5R)-3,5-dimethylpiperazin-1-yl)methyl)-1-oxo-1,2-dihydroisoquinolin-6-yl)-5-fluoro-4-methylbenzamide]
5.01 nM | – | Cc1ccc(C(=O)NC2CC2)cc1-c1ccc2c(=O)n(CC3CC3)cc(CNCCN(C)C)c2c1 [Example 67, N-Cyclopropyl-3-(2-(cyclopropylmethyl)-4-((2-(dimethylamino)ethylamino)methyl)-1-oxo-1,2-dihydroisoquinolin-6-yl)-4-methylbenzamide]
0.2 nM | – | Cc1ccc(C(=O)NC2CC2)cc1-c1ccc2c(=O)n(Cc3ccc(C(=O)O)cc3)cc(CN3CCCN(C)CC3)c2c1 [Example 104, 4-((6-(5-(Cyclopropylcarbamoyl)-2-methylphenyl)-((4-methyl-1,4-diazepan-1-yl)methyl)-1-oxoisoquinolin-2(1H)-yl)methyl)benzoic acid]
0.0501 nM | – | Cc1c(F)cc(C(=O)NC2CC2)cc1-c1ccc2c(=O)n(CC3CC3)cc(CN3CCCN(C)CC3)c2c1 [Example 75, N-Cyclopropyl-3-(2-(cyclopropylmethyl)-4-((4-methyl-1,4-diazepan-1-yl)methyl)-1-oxo-1,2-dihydroisoquinolin-6-yl)-5-fluoro-4-methylbenzamide]
3.16 nM | – | CNCCN(C)Cc1cn(CC2CC2)c(=O)c2ccc(-c3cc(C(=O)NC4CC4)ccc3C)cc12 [Example 64, N-Cyclopropyl-3-(2-(cyclopropylmethyl)-4-((methyl(2-(methylamino)ethyl)amino)methyl)-1-oxo-1,2-dihydroisoquinolin-6-yl)-4-methylbenzamide]
0.158 nM | – | Cc1ccc(C(=O)NC2CC2)cc1-c1ccc2c(=O)n(Cc3ccc(C(=O)N(C)C)cc3)cc(CN3CCCN(C)CC3)c2c1 [Example 105, N-Cyclopropyl-3-(2-(4-(dimethylcarbamoyl)benzyl)-4-((4-methyl-1,4-diazepan-1-yl)methyl)-1-oxo-1,2-dihydroisoquinolin-6-yl)-4-methylbenzamide]
2.51 nM | – | Cc1ccc(C(=O)NC2CC2)cc1-c1ccc2c(=O)n(CC3CC3)cc(C(=O)N3CCC(N(C)C)CC3)c2c1 [Example 45, N-Cyclopropyl-3-(2-(cyclopropylmethyl)-(4-(dimethylamino)piperidine-1-carbonyl)-1-oxo-1,2-dihydroisoquinolin-6-yl)-4-methylbenzamide]
1.26 nM | – | Cc1ccc(C(=O)NC2CC2)cc1-c1ccc2c(=O)n(Cc3ccc(C(=O)N4CCN(C)CC4)cc3)ccc2c1 [Example 20, N-Cyclopropyl-4-methyl-3-(2-(4-(4-methylpiperazine-1-carbonyl)benzyl)-1-oxo-1,2-dihydroisoquinolin-6-yl)benzamide]
1 nM | – | Cc1c(F)cc(C(=O)NC2CC2)cc1-c1ccc2c(=O)n(CC3CC3)cc(CN[C@@H]3CCNC3)c2c1 [Example 110, (R)—N-Cyclopropyl-3-(2-(cyclopropylmethyl)-1-oxo-4-((pyrrolidin-3-ylamino)methyl)-1,2-dihydroisoquinolin-6-yl)-5-fluoro-4-methylbenzamide]
316 nM | – | Cc1ccc(C(=O)NC2CC2)cc1-c1ccc2c(=O)n(CCCN3CCCC3)ccc2c1 [Example 13, N-Cyclopropyl-4-methyl-3-[1-oxo-2-(3-pyrrolidin-1-yl-propyl)-1,2-dihydro-isoquinolin-6-yl]-benzamide]
0.2 nM | – | Cc1c(F)cc(C(=O)NC2CC2)cc1-c1ccc2c(=O)n(CC3CC3)cc(CN3CCC(NC(C)C)CC3)c2c1 [Example 84, N-Cyclopropyl-3-(2-(cyclopropylmethyl)-4-((4-(isopropylamino)piperidin-1-yl)methyl)-1-oxo-1,2-dihydroisoquinolin-6-yl)-5-fluoro-4-methylbenzamide]
3.98 nM | – | Cc1ccc(C(=O)NC2CC2)cc1-c1ccc2c(=O)n(CC3CC3)cc(CN(C)CCN(C)C)c2c1 [Example 68, N-Cyclopropyl-3-(2-(cyclopropylmethyl)-4-(((2-(dimethylamino)ethyl)(methyl)amino)methyl)-1-oxo-1,2-dihydroisoquinolin-6-yl)-4-methylbenzamide]
25.1 nM | – | Cc1ccc(C(=O)NC2CC2)cc1-c1ccc2c(=O)n(CC3CC3)cc(C(=O)N3CCN(CCN(C)C)CC3)c2c1 [Example 46, N-Cyclopropyl-3-(2-(cyclopropylmethyl)-4-(4-(2-(dimethylamino)ethyl)piperazine-1-carbonyl)-1-oxo-1,2-dihydroisoquinolin-6-yl)-methylbenzamide]
0.1 nM | – | Cc1c(F)cc(C(=O)NC2CC2)cc1-c1ccc2c(=O)n(CC3CC3)cc(CN3CCN(C)CC3)c2c1 [Example 76, N-Cyclopropyl-3-(2-(cyclopropylmethyl)-4-((4-methylpiperazin-1-yl)methyl)-1-oxo-1,2-dihydroisoquinolin-6-yl)-5-fluoro-4-methylbenzamide]
